Where “and” joins values, the source holds several entries; their conditions need not be identical. Identical values can stand only once. Toxic doses and inconclusive results are not listed.
Tested on: BDF1 mice, P388 leukemia ip, median survival T/C
Assay: NCI In Vivo Anticancer Drug Screen. Data for tumor model P388 Leukemia (intraperitoneal) in B6D2F1 (BDF1) mice
Details: endpoint: median survival time, higher = longer survival
Outline: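 Each value expresses how treatment altered survival: treated-mouse outcome over vehicle-mouse outcome, both groups bearing the transplanted tumour.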

[1] = dose: 100.0 mg/kg/injection, schedule: Q01DX009 (ip), vehicle: saline with Tween-80
[2] = dose: 200.0 mg/kg/injection, schedule: Q01DX009 (ip), vehicle: saline with Tween-80
[3] = dose: 400.0 mg/kg/injection, schedule: Q01DX009 (ip), vehicle: saline with Tween-80
[4] = dose: 50.0 mg/kg/injection, schedule: Q01DX009 (ip), vehicle: Klucel (hydroxypropylcellulose) (HPC)
[5] = dose: 100.0 mg/kg/injection, schedule: Q01DX009 (ip), vehicle: Klucel (hydroxypropylcellulose) (HPC)
[6] = dose: 100.0 mg/kg/injection, schedule: Q04DX003 (ip), vehicle: Klucel (hydroxypropylcellulose) (HPC)
[7] = dose: 200.0 mg/kg/injection, schedule: Q01DX009 (ip), vehicle: Klucel (hydroxypropylcellulose) (HPC)
[8] = dose: 200.0 mg/kg/injection, schedule: Q04DX003 (ip), vehicle: Klucel (hydroxypropylcellulose) (HPC)
[9] = dose: 400.0 mg/kg/injection, schedule: Q04DX003 (ip), vehicle: Klucel (hydroxypropylcellulose) (HPC)
[10] = dose: 25.0 mg/kg/injection, schedule: Q01DX009 (ip), vehicle: saline with Tween-80
[11] = dose: 50.0 mg/kg/injection, schedule: Q01DX009 (ip), vehicle: saline with Tween-80
[12] = dose: 100.0 mg/kg/injection, schedule: Q04DX003 (ip), vehicle: saline with Tween-80
[13] = dose: 200.0 mg/kg/injection, schedule: Q04DX003 (ip), vehicle: saline with Tween-80
[14] = dose: 12.5 mg/kg/injection, schedule: Q04DX003 (ip), vehicle: water
[15] = dose: 25.0 mg/kg/injection, schedule: Q04DX003 (ip), vehicle: water
[16] = dose: 50.0 mg/kg/injection, schedule: Q04DX003 (ip), vehicle: water
[17] = dose: 100.0 mg/kg/injection, schedule: Q01DX009 (ip), vehicle: saline

With `O=C(c1cccs1)C1Cc2ccccc2C1=O` (stereo unspecified) the T/C [1] was 100 % of control, the T/C [2] was 116 % of control and the T/C [3] was 100 % of control.
In the case of `Cc1ccc(SC2CC3CC2C2COCC32)cc1` (stereo unspecified), the T/C (dose: 25.0 mg/kg/injection, schedule: Q01DX009 (ip), vehicle: Klucel (hydroxypropylcellulose) (HPC)) is reported as 86 % of control, the T/C [4] is reported as 95 % of control and the T/C [5] is reported as 104 % of control.
With `COC(=O)C1OC1c1ccccc1` (stereo unspecified) the T/C [5] was 100 % of control, the T/C [6] was 95 % of control and the T/C [7] was 100 % of control. The T/C [8] was 95 % of control, the T/C (dose: 400.0 mg/kg/injection, schedule: Q01DX009 (ip), vehicle: Klucel (hydroxypropylcellulose) (HPC)) was 100 % of control and the T/C [9] was 95 % of control.
For `CC(=O)n1nc2c(c1CC(C)C)C(=O)C(Nc1ccccc1)=CC2=O`, the T/C (dose: 100.0 mg/kg/injection, schedule: Q04DX002 (ip), vehicle: saline with Tween-80) was 102 % of control, the T/C (dose: 200.0 mg/kg/injection, schedule: Q04DX002 (ip), vehicle: saline with Tween-80) was 108 % of control and the T/C (dose: 400.0 mg/kg/injection, schedule: Q04DX002 (ip), vehicle: saline with Tween-80) was 106 % of control.
With `CCOC(=O)C(OCc1ccccc1)C(=O)OCC` the T/C [1] was 87 % of control, the T/C (dose: 100.0 mg/kg/injection, schedule: Q04DX003 (ip), vehicle: saline) was 115 % of control and the T/C [2] was 104 % of control. The T/C (dose: 200.0 mg/kg/injection, schedule: Q04DX003 (ip), vehicle: saline) was 90 % of control, the T/C [3] was 108 % of control and the T/C (dose: 400.0 mg/kg/injection, schedule: Q04DX003 (ip), vehicle: saline) was 90 % of control.
In the case of `Cc1ccc2c(c1)nc1c3ccccc3nc(-c3ccccc3N)n21`, the T/C [1] is reported as 97 % of control, the T/C [2] is reported as 115 % of control and the T/C [3] is reported as 108 % of control.
For `CC(=O)NNC(=O)c1ccccc1`, the T/C (dose: 12.0 mg/kg/injection, schedule: Q04DX003 (ip), vehicle: Klucel (hydroxypropylcellulose) (HPC)) was 104 % of control, the T/C (dose: 25.0 mg/kg/injection, schedule: Q04DX003 (ip), vehicle: Klucel (hydroxypropylcellulose) (HPC)) was 100 % of control and the T/C [4] was 87 % of control. For the same compound, the T/C (dose: 50.0 mg/kg/injection, schedule: Q04DX003 (ip), vehicle: Klucel (hydroxypropylcellulose) (HPC)) was 104 % of control, the T/C (dose: 75.0 mg/kg/injection, schedule: Q01DX009 (ip), vehicle: Klucel (hydroxypropylcellulose) (HPC)) was 105 % of control and the T/C (dose: 75.0 mg/kg/injection, schedule: Q04DX003 (ip), vehicle: Klucel (hydroxypropylcellulose) (HPC)) was 100 % of control. The T/C [5] was 87 % of control, the T/C [6] was 90 % of control and the T/C (dose: 150.0 mg/kg/injection, schedule: Q01DX009 (ip), vehicle: Klucel (hydroxypropylcellulose) (HPC)) was 110 % of control. For the same compound, the T/C [7] was 91 % of control, the T/C [8] was 95 % of control and 100 % of control and the T/C [9] was 109 % of control and 118 % of control.
In the case of `COc1c(C)c2c3c4c1C(=O)C(=CC4=O)NC(=O)/C(C)=C\C=C\C(C)C1OC(C)(C)OC(C1C)C(C)C(OC(C)=O)C(C)C(OC)/C=C/OC(C)(O2)C3=O` (stereo unspecified), the T/C (dose: 12.5 mg/kg/injection, schedule: Q01DX009 (ip), vehicle: saline with Tween-80) is reported as 109 % of control, the T/C [10] is reported as 113 % of control and the T/C [11] is reported as 105 % of control and 117 % of control.
With `C1CCCC2(CCC1)OCCO2` the T/C (dose: 50.0 mg/kg/injection, schedule: Q04DX003 (ip), vehicle: saline with Tween-80) was 94 % of control, the T/C [1] was 109 % of control and the T/C [12] was 100 % of control. For the same compound, the T/C [2] was 100 % of control, the T/C [13] was 115 % of control and 119 % of control and the T/C [3] was 109 % of control. The T/C (dose: 400.0 mg/kg/injection, schedule: Q04DX003 (ip), vehicle: saline with Tween-80) was 112 % of control and 120 % of control.
In the case of `C/C=C(/C)N(C(C)=O)N(C(C)=O)c1ccc([N+](=O)[O-])cc1[N+](=O)[O-]`, the T/C (dose: 100.0 mg/kg/injection, schedule: Q01DX001 (ip), vehicle: Klucel (hydroxypropylcellulose) (HPC)) is reported as 109 % of control, the T/C [6] is reported as 90 % of control and the T/C (dose: 200.0 mg/kg/injection, schedule: Q01DX001 (ip), vehicle: Klucel (hydroxypropylcellulose) (HPC)) is reported as 100 % of control. For the same compound, the T/C [8] was 104 % of control, the T/C (dose: 400.0 mg/kg/injection, schedule: Q01DX001 (ip), vehicle: Klucel (hydroxypropylcellulose) (HPC)) was 109 % of control and the T/C [9] was 95 % of control.
With `NC(=S)N/N=C\c1ncnc2nc[nH]c12` the T/C (dose: 1.0 mg/kg/injection, schedule: Q01DX009 (ip), vehicle: Klucel (hydroxypropylcellulose) (HPC)) was 107 % of control, the T/C (dose: 2.0 mg/kg/injection, schedule: Q01DX009 (ip), vehicle: Klucel (hydroxypropylcellulose) (HPC)) was 111 % of control and the T/C (dose: 4.0 mg/kg/injection, schedule: Q01DX009 (ip), vehicle: Klucel (hydroxypropylcellulose) (HPC)) was 150 % of control. For the same compound, the T/C (dose: 8.0 mg/kg/injection, schedule: Q01DX009 (ip), vehicle: Klucel (hydroxypropylcellulose) (HPC)) was 160 % of control, the T/C (dose: 16.0 mg/kg/injection, schedule: Q01DX009 (ip), vehicle: Klucel (hydroxypropylcellulose) (HPC)) was 175 % of control and the T/C (dose: 32.0 mg/kg/injection, schedule: Q01DX009 (ip), vehicle: Klucel (hydroxypropylcellulose) (HPC)) was 185 % of control.
`O=C(CCNC(=O)OCc1ccccc1)NC(CSCc1ccccc1)C(=O)O` (stereo unspecified) was tested, and the T/C [14] was 112 % of control, the T/C [15] was 118 % of control and the T/C [16] was 114 % of control. The T/C (dose: 100.0 mg/kg/injection, schedule: Q04DX003 (ip), vehicle: water) was 105 % of control and the T/C (dose: 200.0 mg/kg/injection, schedule: Q04DX003 (ip), vehicle: water) was 103 % of control.
For `CC(O)C(=O)Oc1ccccc1` (stereo unspecified), the T/C [17] was 90 % of control and the T/C (dose: 200.0 mg/kg/injection, schedule: Q01DX009 (ip), vehicle: saline) was 109 % of control.
In the case of `O=S(=O)(CCl)OCCCl`, the T/C [10] is reported as 123 % of control, the T/C [11] is reported as 107 % of control and the T/C [1] is reported as 214 % of control. For the same compound, the T/C [2] was 177 % of control.
With `CCS(=O)c1ncc2cnccn12` (stereo unspecified) the T/C [14] was 109 % of control, the T/C [15] was 92 % of control and the T/C (dose: 50.0 mg/kg/injection, schedule: Q01DX009 (ip), vehicle: water) was 102 % of control. The T/C [16] was 100 % of control and 101 % of control and the T/C (dose: 100.0 mg/kg/injection, schedule: Q01DX009 (ip), vehicle: water) was 94 % of control.
In the case of `CCC(CO)NC(=O)/C=C/c1ccc(Cl)cc1` (stereo unspecified), the T/C [2] is reported as 91 % of control.
For `O=C(CC(=O)C(F)(F)F)c1ccc2c(c1)Cc1ccccc1-2`, the T/C [12] was 124 % of control and the T/C [13] was 111 % of control.
`ClCC1CCN(CCc2ccccc2)CC1` was tested, and the T/C (dose: 50.0 mg/kg/injection, schedule: Q01DX009 (ip), vehicle: saline) was 95 % of control and the T/C [17] was 99 % of control.
With `COC(=O)c1c(C(=O)OC)c1=[N+]=[N-]` the T/C [11] was 101 % of control, the T/C [1] was 96 % of control and the T/C [2] was 99 % of control.
With `CNC(=O)c1ccccc1C(O)(c1ccccc1)c1ccccc1` the T/C [6] was 113 % of control, the T/C [8] was 109 % of control and the T/C [9] was 100 % of control.
With `CC(C(=O)O)C(=O)O.[NH-]CC[NH-].[Pt+2]` the T/C (dose: 3.13 mg/kg/injection, schedule: Q01DX009 (ip), vehicle: water) was 167 % of control, the T/C (dose: 6.25 mg/kg/injection, schedule: Q01DX009 (ip), vehicle: water) was 181 % of control and the T/C (dose: 12.5 mg/kg/injection, schedule: Q01DX009 (ip), vehicle: water) was 90 % of control. The T/C (dose: 25.0 mg/kg/injection, schedule: Q01DX009 (ip), vehicle: water) was 214 % of control.
For `CC1=CC(=NN=c2cc(C)n([O-])c(C)c2)C=C(C)[N+]1=O`, the T/C (dose: 12.5 mg/kg/injection, schedule: Q01DX010 (ip), vehicle: saline) was 91 % of control and 104 % of control and 114 % of control.
With `COCCn1c2nc(=O)n(-c3ccccc3)c(=O)c-2nc2c1CCCC2` the T/C [10] was 103 % of control, the T/C [11] was 97 % of control and 112 % of control and the T/C [1] was 113 % of control and 124 % of control. For the same compound, the T/C [2] was 110 % of control.
`O=C1OC(=C(c2ccccc2)c2ccccc2)c2ccccc21` was tested, and the T/C [4] was 100 % of control, the T/C [5] was 100 % of control and the T/C [7] was 100 % of control.
`C=C1C(=O)OC2CC3(C)OC3C3OC3C3=CC(OC3=O)C12` (stereo unspecified) was tested, and the T/C (dose: 1.25 mg/kg/injection, schedule: Q01DX010 (ip), vehicle: saline) was 115 % of control, the T/C (dose: 2.5 mg/kg/injection, schedule: Q01DX010 (ip), vehicle: saline) was 115 % of control and the T/C (dose: 5.0 mg/kg/injection, schedule: Q01DX010 (ip), vehicle: saline) was 115 % of control. The T/C (dose: 10.0 mg/kg/injection, schedule: Q01DX010 (ip), vehicle: saline) was 100 % of control.

Reference: PubChem BioAssay AID328 (DTP/NCI, 2004)
